Data on three compounds can be found in patent publication US20200121807A1, “Anti-Cancer Agents” (UEA ENTERPRISES LIMITED, priority 2016, published 2020).

The nature of data set [1]: Toxicity in PC-3 tumour-bearing NSG mice (body weight, liver weight, WCC). It counts as in vivo. To be noted: after 2 weeks of administration. As to the method: At Day 30 mice were sacrificed and liver weight measurements were performed. Liver weight was normalised to control group (healthy group no treatment). *: p<0.05 vs. control group (ANOVA). Data is expressed as Mean±SE (n=7).

For data set [2] the following is noted: in vivo; cited from earlier work.
Data set [3] deals with PC-3 metastatic prostate cancer cells. Nature of the data set: PC-3 prostate tumour xenograft, free agents, tumour weight. To be noted: 5 mg/kg single agent, prostate tumours. It counts as in vivo, Balb/c nude mice. The method, then: (§1) Tumour weight at week 5. Columns, mean of three experiments performed in triplicate. Bars, SE. * p<0.05 versus control.
(§2) Mice and tumours were weighed.
(§3) Data are presented as the mean values of at least three independent experiments normalised to control±standard error of the mean (SE) calculated using OriginPro. Statistical significance between two groups was conducted by unpaired Student's t test. p value of <0.05 is considered statistically significant.

The target of the next data set is T1, SK1 (Homo sapiens, UniProt Q9NYA1).
T1 construct: endogenous in cells; host or cells: PC-3 cells (obtained from DSMZ)
T1 sequence (Q9NYA1 whole entry): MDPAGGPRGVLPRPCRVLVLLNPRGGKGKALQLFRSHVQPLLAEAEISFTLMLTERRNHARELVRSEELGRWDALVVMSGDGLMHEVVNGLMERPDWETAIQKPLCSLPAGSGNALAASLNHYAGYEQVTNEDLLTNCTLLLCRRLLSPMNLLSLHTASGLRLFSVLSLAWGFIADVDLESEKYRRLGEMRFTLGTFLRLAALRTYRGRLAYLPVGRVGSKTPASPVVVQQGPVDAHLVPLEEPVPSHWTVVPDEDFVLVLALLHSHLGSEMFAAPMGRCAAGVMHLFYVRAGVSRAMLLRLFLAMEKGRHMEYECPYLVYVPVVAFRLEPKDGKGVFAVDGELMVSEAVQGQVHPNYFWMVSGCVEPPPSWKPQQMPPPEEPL
Put plainly: SK1 activity by radiolabelling in PC-3 cells. It counts as cell-based. The following applies: PC-3 cells treated for 48 h. As to the method:
(D) PC-3 cells were treated for 48 h as indicated in figure and SK1 activity was measured by radiolabelling. Columns, points, percentage relative to the control. Data is expressed as Mean±SE (n=3). * p<0.05 versus control, ** p<0.05 versus free drug treatment (DTX+FTY). (E) Cytotoxicity of free drugs was assessed using the MTT assay (48 hr: dark shading; 72 hr: light shading; 96 hr: no shading); the final two columns showing sequential administration of docetaxel on day 1 (D1) followed by FTY720 on day 2 (D2), or administration of FTY720 on day 1 (D1) followed by docetaxel on day 2 (D2).
SK1 assay was performed using radiolabelling as previously described (Alshaker et al (2014), above, plus: Alshaker, H. et al. Sphingosine kinase 1 contributes to leptin-induced STAT3 phosphorylation through IL-6/gp130 transactivation in oestrogen receptor-negative breast cancer. Breast Cancer Res Treat 149, 59-67, doi:10.1007/s10549-014-3228-8 (2015); and Pchejetski, D. et al. The involvement of sphingosine kinase 1 in LPS-induced Toll-like receptor 4-mediated accumulation of HIF-1alpha protein, activation of ASK1 and production of the pro-inflammatory cytokine IL-6. Immunol Cell Biol 89, 268-274, doi:10.1038/icb.2010.91 (2011)), in conditions favouring SK1 activity and inhibiting SK2 activity.

Data set [4] relates to MDA-MB-231 metastatic triple negative breast cancer cell. Put plainly: MDA-MB-231 breast tumour xenograft, free agents, tumour weight. To be noted: 5 mg/kg single agent, breast tumours. It counts as in vivo, Balb/c nude mice. The method, then:
as §1, §2, §3

In general, half-life refers to the time needed for the level to fall by half in the phase considered. On to `CCCCCCCCc1ccc(CCC(N)(CO)CO)cc1` [FTY720, fingolimod], for which, in data set [1], the white cell count entry is reported as “significantly reduced white cell count”. Moreover, the half-life in data set [2] was 6 to 9 days.

`Oc1ccc(Nc2nc(-c3ccc(Cl)cc3)cs2)cc1` [SK1-II]: the “tumour weight reduction, individual drug treatment” value in data set [3] is on record as “did not reduce the tumour weight significantly”.

Take `CC(=O)O[C@@]12CO[C@@H]1C[C@H](O)[C@@]1(C)C(=O)[C@H](O)C3=C(C)[C@@H](OC(=O)[C@H](O)[C@@H](NC(=O)OC(C)(C)C)c4ccccc4)C[C@@](O)([C@@H](OC(=O)c4ccccc4)[C@H]21)C3(C)C` [docetaxel]: the SK1 activity entry on SK1 is “insignificant increase”. Moreover, the “tumour weight reduction, individual drug treatment” value in data set [3] and in data set [4] was “did not reduce the tumour weight significantly” throughout. Besides, the circulation half-life in data set [2] was ~17 h.
